Results from paper PMC12006963, “Application of Deuterium in an M1 Positive Allosteric Modulator Back-Up Program: The Discovery of VU6045422” (ACS Chemical Neuroscience, 2025).

Legend:
Format in all cases: in vitro ADME
[1] = Predicted hepatic clearance, hepatic microsomes (rat)
Experimental: After a 5 min preincubation, the reaction was initiated by the addition of NADPH (1 mM). At selected time intervals (0, 3, 7, 15, 25, and 45 min), aliquots were taken and subsequently placed into a 96-well plate containing cold acetonitrile with internal standard (50 ng/mL carbamazepine). Plates were then centrifuged at 3000 rcf (4 °C) for 10 min, and the supernatant was transferred to a separate 96-well plate and diluted 1:1 with water for LC/MS/MS analysis. The in vitro half-life ( 1/2, min, Eq. 1), intrinsic clearance (CLint, mL/min/kg, Eq. 2), and subsequent predicted hepatic clearance (CLhep, mL/min/kg, Eq. 3) was determined employing the […]
where k represents the slope from linear regression analysis of the natural log percent remaining of a test compound as a function of incubation time […]
(2) CLint = in vitroT1/2 x mg microsomes x gram liver x kg body wt ascale-up factors: of 20 (human) or 45 (rat) […]
where Qh (hepatic blood flow, mL/min/kg) is 21 (human) or 70 (rat).
LC/MS/MS Bioanalysis of Samples from Plasma Protein Binding and Intrinsic Clearance […]
Samples were analyzed on a Thermo Electron TSQ Quantum Ultra triple quad mass spectrometer (San Jose, CA) via electrospray ionization (ESI) with two Themo Electron Accella pumps (San Jose, CA), and a Leap Technologies CTC PAL autosampler (Carrboro, NC). Analytes were separated by gradient elution on a dual column system with two Thermo Hypersil Gold (2.1 x 30 mm, 1.9 µm) columns (San Jose, CA) thermostated at 40 °C. HPLC mobile phase A was 0.1% formic acid in water and mobile phase B was 0.1% formic acid in acetonitrile. The gradient started […]
for 0.2 min; returned to 10% B in 0.1 min. The total run time was 1.3 min and the HPLC flow rate was 0.8 mL/min. While pump 1 ran the gradient method, pump 2 equilibrated the alternate column isocratically at 10% B. Compound optimization, data collection, and processing was performed using Thermo Electron's QuickQuan software (v2.3) and Xcalibur (v2.0.7 SP1).
In vivo DMPK experimental:
Determination of brain to plasma ratio: […]

[2] = Predicted hepatic clearance, hepatic microsomes (cyno)
[3] = Plasma protein binding, equilibrium dialysis (human); details: pH 7.4, read-out: fu,plasma
Experimental: page 5: Drug Metabolism Methods: In vitro Plasma protein binding and Brain homogenate binding: Determination of fraction unbound (f u) in plasma was conducted in vitro via equilibrium dialysis using HTDialysis (HTD) membrane plates. The top half of the plate was filled with 100 uL of Dubelco’s Phosphate Buffered Saline, pH 7.4 (DPBS). Compounds were diluted into plasma from each species (5 µM final concentration), which was aliquoted in triplicate to the ‘bottom half’ of the prepared HTD plate wells. The HTD plate was sealed and incubated for 6 hours at 37 °C. Following incubation, each well (both top and bottom halves) were transferred (20 µL) to the corresponding wells of a 96- shallow-well (V-bottom) plate. The daughter plates were then matrix-matched (DPBS side wells received equal volume of plasma, and plasma side wells received equal volume of DPBS), and extraction solution (120 µL; acetonitrile containing 50 nM carbamazepine as IS) was added to all wells of both daughter plates to precipitate protein and extract test article. The plates were then sealed and centrifuged (3500 rcf) for 10 minutes at ambient temperature. Supernatant (60 µL) from each well of the daughter plates was then transferred to the corresponding wells of new daughter plates (96-shallow-well, V bottom) containing water (Milli-Q, 60 µL/well), and the plates were sealed in preparation for LC-MS/MS analysis (see LC-MS/MS analysis method below). The unbound fraction (f u) was calculated following the equation below, and mean values for each species were calculated from 3 replicates. […] Fraction unbound for both plasma and brain samples was determined using Equation 4. f = Concbuffer u Concplasma Equation 4 Determination of fraction unbound in plasma. […]

CYP 2D6 = CYP 2D6 (Homo sapiens, UniProt P10635); test: CYP inhibition 2D6
Excerpt: Table 1 Pharmacology and In Vitro DMPK Profiles of M1 PAMs 1, 3, and 5 | column: 1; 3; 5

[4] = Hepatocyte metabolite identification (rat); details: rat hepatocytes, 4 h incubation
Experimental: Prior to full characterization of deuterated analogues 3 and 5, they were incubated in rat, dog, monkey, and human hepatocytes, along with 1, to determine the amount of parent remaining, as well as the degree of undesired oxidative metabolites 2, 4, and 6 (Figure 2). […] For the gem-dideutero congener 3, metabolic stability was improved in vitro. […] Thus, in hepatocytes in vitro, the kinetic isotope effect engendered greater metabolic stability of the labile hot spot on the lactam. It remained to be seen if this effect would translate in vivo, but we first had to assess the impact of the deuterated analogues on molecular pharmacology, in vitro DMPK, standard low-dose in vivo DMPK and, if warranted, in vivo efficacy in a rat novel object recognition (NOR) behavioral assay.

Sequence of CYP 2D6 (P10635 whole entry): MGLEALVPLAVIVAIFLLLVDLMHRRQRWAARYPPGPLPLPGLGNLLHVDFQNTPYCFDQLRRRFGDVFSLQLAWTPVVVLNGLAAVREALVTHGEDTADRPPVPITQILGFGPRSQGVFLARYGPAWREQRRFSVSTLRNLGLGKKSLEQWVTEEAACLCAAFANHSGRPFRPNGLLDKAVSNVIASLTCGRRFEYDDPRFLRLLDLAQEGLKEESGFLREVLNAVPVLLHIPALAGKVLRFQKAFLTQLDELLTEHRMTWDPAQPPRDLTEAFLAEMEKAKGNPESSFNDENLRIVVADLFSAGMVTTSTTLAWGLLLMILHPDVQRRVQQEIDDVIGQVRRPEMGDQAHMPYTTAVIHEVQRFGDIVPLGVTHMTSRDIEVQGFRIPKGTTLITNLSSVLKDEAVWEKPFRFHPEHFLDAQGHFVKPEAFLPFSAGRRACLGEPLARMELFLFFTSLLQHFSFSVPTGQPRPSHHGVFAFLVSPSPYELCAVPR

| SMILES | Predicted CLhep [1] | Predicted CLhep [2] | fraction unbound at 6 h, 5 µM [3] | IC50 (CYP 2D6) | % Total Peak Area, parent remaining [4] |
| --- | --- | --- | --- | --- | --- |
| Cn1cc2c(-c3cc(F)c(CN4Cc5ncccc5C4=O)c(F)c3)cccc2n1 [compound 1] | 5.7 mL/min/kg | 5.6 mL/min/kg | 0.034 | > 30 µM | 76.3% |
| [2H]C1([2H])c2ncccc2C(=O)N1Cc1c(F)cc(-c2cccc3nn(C)cc23)cc1F [compound 3] | 41.3 mL/min/kg | 27.4 mL/min/kg | 0.051 | > 30 µM | 87.0% |
| [2H]C1([2H])c2ncccc2C(=O)N1Cc1c(F)cc(-c2cccc3nn(C([2H])([2H])[2H])cc23)cc1F [compound 5] | 35.9 mL/min/kg | 27.5 mL/min/kg | 0.036 | > 30 µM | 87.7% |
